Reference: patent US11572373B2, “Maytansinoid-based drug delivery systems” (LADRX CORPORATION, priority 2017, dated 2023)

Test system: human tumor xenograft models
Assay: Antitumor activity in human tumor xenograft mice models
Format: in vivo
Conditions: five human tumor xenograft models in nude mice, i.v. on day 1, 8, 15, and 22
From the text: This included starting tumor volumes in the range of approximately 80-110 mm^3 but also initial starting tumor volumes of up to approximately 400 mm^3. Furthermore, in most cases therapy with albumin-binding maytansinoids 30 and 31 induced long-term remissions and a decrease in Relative Tumor Volume (RTV). […] Experimental procedure and the results in the tumor-bearing mice models are described in detail in Examples 11-19 and FIGS. 3-16.
Female immunodeficient NMRI nude mice, from Charles River, received unilateral tumor implants subcutaneously in the left flank while under isoflurane anesthesia with human cancer tumors until tumors were palpable and had reached a volume of 80-200 mm^3 (unless otherwise stated).
Animals were kept in cages, the temperature inside the cages maintained at 25±1° C. with a relative humidity of 45-65% and an air change rate in the cage of 60-fold per hour. They were kept under a 14 h light: 10 h dark, artificial light cycle. The animals were fed with autoclaved Teklad Global 19% Protein Extruded Diet (T.2019S.12) from Envigo RMS SARL and had access to sterile filtered and acidified (pH 2.5) tap water, which was changed twice weekly. Feed and water were provided ad libitum. […] Animals were routinely monitored twice daily on working days and daily on Saturdays and Sundays. […] Relative body weights (RBW) of individual animals were calculated by dividing the individual absolute body weight on day X (BWx) by the individual body weight on the day of randomization multiplied by 100%. The tumor volume was determined by a two-dimensional measurement with calipers on the day of randomization (day 0) and then twice weekly. Tumor volumes were calculated according to the following equation: Tumor Vol [mm^3]=1 [mm]×w^2 [mm^2]×0.5, where “1” is the length and “w” is width of the tumor. The relative volume of an individual tumor on day X (RTVx) was calculated by dividing the absolute individual tumor volume [mm^3] of the respective tumor on day X (Tx) by the absolute individual tumor volume of the same tumor on the day of randomization multiplied by 100%. […]

COc1cc2cc(c1Cl)N(C)C(=O)C[C@H](OC(=O)COc1cccc(/C(C)=N/NC(=O)c3ccc(NC(=O)CCCCCN4C(=O)C=CC4=O)cc3S(=O)(=O)O)c1)[C@]1(C)O[C@H]1[C@H](C)[C@@H]1C[C@@](O)(NC(=O)O1)[C@H](OC)/C=C/C=C(\C)C2 [Compound 31]
antitumor activity: partial and complete tumor regressions
